In patent US20240293551A1, “USE OF ST-TYPE LIPID COMPOUNDS IN PREPARATION OF NUCLEIC ACID DELIVERY REAGENT AND RELATED PRODUCT” (INSTITUTE OF BASIC MEDICAL SCIENCES CHINESE ACADEMY OF …, priority 2021, published 2024):

System: PGY-sRNA-26
Assay: In vivo delivery study of lipid-nucleic acid mixture (oral gavage, RT-qPCR of PGY-sRNA-26 in tissues)
Parameters: species or system mouse
Settings: C57BL/6 mice, gavage, 100 μg lipid: 10 nmol PGY-sRNA-26, 12 hours; for delivery efficacy over each tissue and blood tested (broad-spectrum delivery): all tissues and blood tested; for oral delivery of single-stranded sRNA nucleic acids into mouse intestinal tissue: intestine
Experimental: 10 nmol of small RNA (as shown in Table 2) was dissolved in 400 μl of DEPC-treated water in a glass tube, 10 μl of the corresponding lipid stock solution was added such that the lipid mass in the system was 100 μg. The mixture was mixed thoroughly, heated in a 90° C. water bath for 15 minutes, and then cooled naturally to obtain the lipid nucleic acid mixture of lipid and small RNA.
C57BL/6 male mice, approximately 6 weeks old, weighing 20-24 g, were obtained from Beijing Vital River Laboratory Animal Technology Co., Ltd. The mice were housed in the SPF-grade animal facility at the Animal Center of the Institute of Basic Medical Sciences, Chinese Academy of Medical Sciences. The mice were fasted for 12 hours before gavage administration.
The resultant lipid nucleic acid mixture was orally administered to each mouse at a dose of 100 μg lipid: 10 nmol single-stranded 3′-methylated small RNA PGY-sRNA-26.
• 1) Blank group (n=4): mice were administered with 500 μl saline by gavage, this group served as a blank control; • 2) Free uptake group (n=4): mice were directly administered with small RNA PGY-sRNA-26 solution (10 nmol/mouse, 500 μl) by gavage, this group served as a negative control; • 3) Lipid-treated group (n=4): mice were administered with 500 μl lipid nucleic acid mixture prepared in step 2 by gavage.
After 12 hours of gavage administration, 500 μl blood from the eyeball of each mouse was sampled, added to 1.5 ml Trizol Reagent LS (purchased from Invitrogen), thoroughly mixed for lysis. 3 ml of Trizol Reagent LSwas added to tissue samples and homogenized for complete lysis, wherein the sampled tissues include heart, liver, spleen, lung, kidney, stomach, intestine, brain, blood, femur. RNA was extracted from 1 ml of the blood or the tissue lysate following the steps below: • Centrifuge at 4° C., 12,000 rpm for 5 min, discard the precipitate, transfer Trizol to a new centrifuge tube; • Add chloroform at 200 μL chloroform/mL Trizol, shake well, stand at room temperature for 5 min; • Centrifuge at 4° C., 12,000 rpm for 15 min; • Take the upper aqueous phase to another centrifuge tube, add isopropanol at 0.4 mL isopropanol/mL Trizol, mix well, and stand at low temperature for 10-20 min; • Centrifuge at 4° C., 12,000 rpm for 15 min, discard the supernatant, RNA precipitated at the bottom of the tube; • Add 1 mL of 75% ethanol, gently shake the centrifuge tube, suspend the precipitate; • Centrifuge at 4° C., 12,000 rpm for 15 min, discard the supernatant, add 1 mL of 75% ethanol, gently shake the centrifuge tube, suspend the precipitate; • Centrifuge at 4° C., 12,000 rpm for 15 min, discard the supernatant, air-dry at room temperature, dissolve RNA samples in 50 μL RNase-free H2O, measure OD value to quantify RNA concentration. 3.3 Reverse Transcription of sRNA to cDNA:
The reverse transcription system is as follows: Template RNA (200 ng/μL) 10 μL, 10×RT Buffer 2.0 μL, 25×dNTP Mix (100 mM) 0.8 μL, U6 RT stem-loop primer (10 μM) 2.0 μL, PGY-sRNA-26 RT stem-loop primer (10 μM) 2.0 μL, MultiScribe™ Reverse Transcriptase (50 U/μL) 1.0 μL, RNAse Inhibitor (40 U/μL) 1.0 μL, nuclease-free H2O 1.2 μL. After transient centrifugation, the reverse transcription system was placed in a PCR machine with the following reaction conditions: (1) 25° C., 10 min; (2) 37° C., 120 min; (3) 85° C., 5 min; (4) 4° C., stop reaction. After the reaction, add 20 μL RNAse-free ddH2O, adjust the final volume to 40 μL. The stem-loop primers used in this reverse transcription process were synthesized by Beijing Tianyi Huiyuan Biotechnology Co., Ltd. (U6 was used as a standard reference gene to calculate its relative expression, because U6 RT primer was used as a reference gene in relative quantification of RT-qPCR reactions for small RNA): […]

Compound | delivery efficacy over each tissue and blood tested (broad-spectrum delivery) | oral delivery of single-stranded sRNA nucleic acids into mouse blood | oral delivery of single-stranded sRNA nucleic acids into mouse brain tissue | oral delivery of single-stranded sRNA nucleic acids into mouse femur | oral delivery of single-stranded sRNA nucleic acids into mouse heart tissue | oral delivery of single-stranded sRNA nucleic acids into mouse intestinal tissue | oral delivery of single-stranded sRNA nucleic acids into mouse kidney tissue | oral delivery of single-stranded sRNA nucleic acids into mouse liver tissue | oral delivery of single-stranded sRNA nucleic acids into mouse lung tissue | oral delivery of single-stranded sRNA nucleic acids into mouse spleen tissue | oral delivery of single-stranded sRNA nucleic acids into mouse stomach tissue
CC(C)CCC[C@@H](C)[C@H]1CC[C@H]2[C@@H]3C[C@@H](O)[C@@]4(O)C[C@@H](O)CC[C@]4(C)[C@H]3CC[C@]12C [Lipid 551, Cholestan-3,5,6-triol (3S,5R,6R,8S,9S,10R,13R,14S,17R)-10,13-dimethyl-17-[(2R)-6-methylheptan-2-yl]-1,2,3,4,6,7,8,9,11,12,14,15,16,17-tetradecahydrocyclopenta[a]phenanthrene-3,5,6-triol] | exhibited the best delivery efficacy | can effectively orally deliver | can effectively orally deliver | can effectively orally deliver | can effectively orally deliver | can effectively orally deliver | can effectively orally deliver | can effectively orally deliver | can effectively orally deliver | can effectively orally deliver | can effectively orally deliver
C[C@H](CCC(=O)NCC(=O)O)[C@H]1CC[C@H]2[C@@H]3CC[C@@H]4C[C@H](O)CC[C@]4(C)[C@H]3C[C@H](O)[C@]12C [Lipid 552] | exhibited the best delivery efficacy | can effectively orally deliver | can effectively orally deliver | can effectively orally deliver | can effectively orally deliver | can effectively orally deliver | can effectively orally deliver | can effectively orally deliver | can effectively orally deliver | can effectively orally deliver | can effectively orally deliver
C[C@H](CCC(=O)NCC(=O)O)[C@H]1CC[C@H]2[C@@H]3[C@H](O)C[C@@H]4C[C@H](O)CC[C@]4(C)[C@H]3C[C@H](O)[C@]12C [Lipid 553] | exhibited the best delivery efficacy | can effectively orally deliver | can effectively orally deliver | can effectively orally deliver | can effectively orally deliver | can effectively orally deliver | can effectively orally deliver | can effectively orally deliver | can effectively orally deliver | can effectively orally deliver | can effectively orally deliver
